Experiments:
Test in all cases: KinaseProfiler
Format in all cases: biochemical
Settings in all cases: 10 μM, ATP near Km
EphB3 = target: T1, EphB3 (Homo sapiens, UniProt P54753)
T1 construct: purchased Millipore, Inc. (KinaseProfiler service)
Outline: (§1)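 Inhibition was profiled at 10 μM in duplicate. Kinase-specific ATP levels near Km were used, and residual activity is stated as percent of control, averaged over both replicates.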

MKNK2 = target: T2, MKNK2 (Homo sapiens, UniProt Q9HBH9)
T2 construct: purchased Millipore, Inc. (KinaseProfiler service)
Outline: as §1

EphA7 = target: T3, EphA7 (Homo sapiens, UniProt Q15375)
T3 construct: purchased Millipore, Inc. (KinaseProfiler service)
Outline: as §1

SGK2 = target: T4, SGK2 (Homo sapiens, UniProt Q9HBY8)
T4 construct: purchased Millipore, Inc. (KinaseProfiler service)
T4 sequence (Q9HBY8 whole entry): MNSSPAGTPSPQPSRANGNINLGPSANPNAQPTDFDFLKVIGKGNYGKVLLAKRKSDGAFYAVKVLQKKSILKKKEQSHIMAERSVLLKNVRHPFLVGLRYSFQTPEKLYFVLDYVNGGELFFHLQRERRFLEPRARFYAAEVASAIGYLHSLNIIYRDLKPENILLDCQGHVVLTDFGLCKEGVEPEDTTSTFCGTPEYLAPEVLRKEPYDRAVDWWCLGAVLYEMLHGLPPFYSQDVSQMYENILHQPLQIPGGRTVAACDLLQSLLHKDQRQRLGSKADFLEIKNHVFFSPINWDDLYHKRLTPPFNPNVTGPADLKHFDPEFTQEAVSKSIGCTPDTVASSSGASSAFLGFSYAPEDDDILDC
Outline: as §1

MRCKalpha = target: T5, MRCKalpha (Homo sapiens, UniProt Q5VT25)
T5 construct: purchased Millipore, Inc. (KinaseProfiler service)
Outline: as §1

Flt3 = target: T6, Flt3 (Homo sapiens, UniProt P36888)
T6 construct: purchased Millipore, Inc. (KinaseProfiler service)
Outline: as §1

IRR = target: T7, IRR (Homo sapiens, UniProt P14616)
T7 construct: purchased Millipore, Inc. (KinaseProfiler service)
Outline: as §1

CK2alpha2 = target: T8, CK2alpha2 (Homo sapiens, UniProt P19784)
T8 construct: purchased Millipore, Inc. (KinaseProfiler service)
Outline: as §1

Lck = target: T9, Lck (Homo sapiens, UniProt P06239)
T9 construct: purchased Millipore, Inc. (KinaseProfiler service)
Outline: as §1

IR = target: T10, IR (Homo sapiens, UniProt P06213)
T10 construct: purchased Millipore, Inc. (KinaseProfiler service)
Outline: as §1

BrSK2 = target: T11, BrSK2 (Homo sapiens, UniProt Q8IWQ3)
T11 construct: purchased Millipore (KinaseProfiler service)
Outline: as §1

Ab12 = target: T12, Ab12 (Homo sapiens, UniProt P42684)
T12 construct: purchased Millipore (KinaseProfiler service)
Outline: as §1

TBK1 = target: T13, TBK1 (Homo sapiens, UniProt Q9UHD2)
T13 construct: purchased Millipore, Inc. (KinaseProfiler service)
Outline: as §1

PKCgamma = target: T14, PKCgamma (Homo sapiens, UniProt P05129)
T14 construct: purchased Millipore, Inc. (KinaseProfiler service)
Outline: as §1

EphA8 = target: T15, EphA8 (Homo sapiens, UniProt P29322)
T15 construct: purchased Millipore, Inc. (KinaseProfiler service)
Outline: as §1

Mer = target: T16, Mer (Homo sapiens, UniProt Q12866)
T16 construct: purchased Millipore, Inc. (KinaseProfiler service)
Outline: as §1

TSSK2 = target: T17, TSSK2 (Homo sapiens, UniProt Q96PF2)
T17 construct: purchased Millipore, Inc. (KinaseProfiler service)
T17 sequence (Q96PF2 whole entry): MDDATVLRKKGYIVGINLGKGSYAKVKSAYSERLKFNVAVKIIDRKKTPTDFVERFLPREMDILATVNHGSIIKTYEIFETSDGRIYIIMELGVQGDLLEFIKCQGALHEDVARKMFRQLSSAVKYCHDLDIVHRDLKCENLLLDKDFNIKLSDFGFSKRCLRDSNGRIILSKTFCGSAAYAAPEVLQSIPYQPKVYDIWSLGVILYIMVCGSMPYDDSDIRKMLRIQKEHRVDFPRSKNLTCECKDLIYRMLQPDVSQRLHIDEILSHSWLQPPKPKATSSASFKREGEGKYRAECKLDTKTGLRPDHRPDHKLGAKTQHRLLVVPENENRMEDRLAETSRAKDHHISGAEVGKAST
Outline: as §1

c-RAF = target: T18, c-RAF (Homo sapiens, UniProt P04049, Y340D/Y341D)
T18 construct: purchased Millipore, Inc. (KinaseProfiler service)
Outline: as §1

Fyn = target: T19, Fyn (Homo sapiens, UniProt P06241)
T19 construct: purchased Millipore, Inc. (KinaseProfiler service)
Outline: as §1

PKCtheta = target: T20, PKCtheta (Homo sapiens, UniProt Q04759)
T20 construct: purchased Millipore, Inc. (KinaseProfiler service)
Outline: as §1

IRAK4 = target: T21, IRAK4 (Homo sapiens, UniProt Q9NWZ3)
T21 construct: purchased Millipore, Inc. (KinaseProfiler service)
Outline: as §1

JAK2 = target: T22, JAK2 (Homo sapiens, UniProt O60674)
T22 construct: purchased Millipore, Inc. (KinaseProfiler service)
Outline: as §1

Ros = target: T23, Ros (Homo sapiens, UniProt P08922)
T23 construct: purchased Millipore, Inc. (KinaseProfiler service)
Outline: as §1

CDK2/cyclinA = target: T24, CDK2/cyclinA (Homo sapiens, UniProt P24941)
T24 construct: purchased Millipore, Inc. (KinaseProfiler service)
Outline: as §1

PrKX = target: T25, PrKX (Homo sapiens, UniProt P51817)
T25 construct: purchased Millipore, Inc. (KinaseProfiler service)
T25 sequence (P51817 whole entry): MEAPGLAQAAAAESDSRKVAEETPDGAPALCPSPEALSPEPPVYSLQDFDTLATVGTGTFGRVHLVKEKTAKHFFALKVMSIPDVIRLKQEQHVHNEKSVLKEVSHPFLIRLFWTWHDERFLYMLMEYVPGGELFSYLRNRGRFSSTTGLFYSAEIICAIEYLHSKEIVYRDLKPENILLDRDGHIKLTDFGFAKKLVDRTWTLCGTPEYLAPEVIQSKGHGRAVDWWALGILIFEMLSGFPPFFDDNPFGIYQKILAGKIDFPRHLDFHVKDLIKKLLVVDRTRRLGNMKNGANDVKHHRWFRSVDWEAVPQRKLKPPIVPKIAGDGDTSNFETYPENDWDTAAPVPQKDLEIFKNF
Outline: as §1

DAPK1 = target: T26, DAPK1 (Homo sapiens, UniProt P53355)
T26 construct: purchased Millipore, Inc. (KinaseProfiler service)
Outline: as §1

CDK7/cyclinH/MAT1 = target: T27, CDK7/cyclinH/MAT1 (Homo sapiens, UniProt P50613)
T27 construct: purchased Millipore, Inc. (KinaseProfiler service)
T27 sequence (P50613 whole entry): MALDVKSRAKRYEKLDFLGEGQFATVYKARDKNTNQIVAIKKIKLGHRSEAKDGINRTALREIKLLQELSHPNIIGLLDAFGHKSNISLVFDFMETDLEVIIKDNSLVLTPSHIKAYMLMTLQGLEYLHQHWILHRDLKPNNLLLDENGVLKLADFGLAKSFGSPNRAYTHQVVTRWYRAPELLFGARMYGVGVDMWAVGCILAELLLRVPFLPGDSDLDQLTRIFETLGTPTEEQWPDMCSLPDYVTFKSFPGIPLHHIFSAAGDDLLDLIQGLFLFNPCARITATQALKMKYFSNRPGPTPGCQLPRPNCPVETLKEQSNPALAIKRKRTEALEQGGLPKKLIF
T27 sequence (P51946 whole entry partner): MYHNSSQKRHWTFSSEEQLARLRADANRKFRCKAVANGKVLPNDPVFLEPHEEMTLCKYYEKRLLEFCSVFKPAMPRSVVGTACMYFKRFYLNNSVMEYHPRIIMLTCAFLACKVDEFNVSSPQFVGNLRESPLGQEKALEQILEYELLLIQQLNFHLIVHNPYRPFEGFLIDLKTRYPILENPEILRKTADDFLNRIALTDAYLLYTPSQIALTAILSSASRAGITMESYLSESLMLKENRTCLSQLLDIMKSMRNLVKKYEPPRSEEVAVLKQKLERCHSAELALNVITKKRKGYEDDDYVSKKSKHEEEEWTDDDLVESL
T27 sequence (P51948 whole entry partner): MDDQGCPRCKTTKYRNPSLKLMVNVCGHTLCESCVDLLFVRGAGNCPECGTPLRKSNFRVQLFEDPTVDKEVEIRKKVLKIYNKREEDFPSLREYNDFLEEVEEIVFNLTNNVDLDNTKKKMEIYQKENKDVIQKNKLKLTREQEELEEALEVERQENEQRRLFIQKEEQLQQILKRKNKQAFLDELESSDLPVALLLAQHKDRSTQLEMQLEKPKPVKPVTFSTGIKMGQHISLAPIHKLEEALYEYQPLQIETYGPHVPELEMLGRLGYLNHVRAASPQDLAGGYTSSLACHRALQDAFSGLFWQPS
Outline: as §1

MAP4K2 = target: T28, MAP4K2 (Homo sapiens, UniProt Q12851)
T28 construct: purchased Millipore, Inc. (KinaseProfiler service)
Outline: as §1

MSK1 = target: T29, MSK1 (Homo sapiens, UniProt O75582)
T29 construct: purchased Millipore, Inc. (KinaseProfiler service)
T29 sequence (O75582 whole entry): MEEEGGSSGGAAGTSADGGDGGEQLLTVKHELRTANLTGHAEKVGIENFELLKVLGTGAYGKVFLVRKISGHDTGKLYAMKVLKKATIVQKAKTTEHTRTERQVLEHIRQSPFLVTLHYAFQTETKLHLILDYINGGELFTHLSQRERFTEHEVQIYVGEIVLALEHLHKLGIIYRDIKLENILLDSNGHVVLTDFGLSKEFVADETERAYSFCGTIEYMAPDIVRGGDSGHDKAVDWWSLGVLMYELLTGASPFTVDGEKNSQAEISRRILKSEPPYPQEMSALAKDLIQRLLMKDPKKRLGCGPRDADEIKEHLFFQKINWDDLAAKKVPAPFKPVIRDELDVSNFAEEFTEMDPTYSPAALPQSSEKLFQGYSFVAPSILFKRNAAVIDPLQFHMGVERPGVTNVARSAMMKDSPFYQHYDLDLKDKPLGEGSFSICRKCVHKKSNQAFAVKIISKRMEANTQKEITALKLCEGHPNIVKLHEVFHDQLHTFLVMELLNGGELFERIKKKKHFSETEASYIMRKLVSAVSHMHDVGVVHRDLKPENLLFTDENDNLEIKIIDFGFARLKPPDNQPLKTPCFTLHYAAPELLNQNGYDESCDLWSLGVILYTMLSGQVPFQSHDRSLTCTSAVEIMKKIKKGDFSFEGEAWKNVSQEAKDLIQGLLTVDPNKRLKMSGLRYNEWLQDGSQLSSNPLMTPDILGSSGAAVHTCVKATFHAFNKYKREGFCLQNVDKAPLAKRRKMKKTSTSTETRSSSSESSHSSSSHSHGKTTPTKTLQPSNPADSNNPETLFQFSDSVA
Outline: as §1

Met = target: T30, Met (Homo sapiens, UniProt P08581)
T30 construct: purchased Millipore, Inc. (KinaseProfiler service)
Outline: as §1

GRK5 = target: T31, GRK5 (Homo sapiens, UniProt P34947)
T31 construct: purchased Millipore, Inc. (KinaseProfiler service)
Outline: as §1

IKKalpha = target: T32, IKKalpha (Homo sapiens, UniProt O15111)
T32 construct: purchased Millipore, Inc. (KinaseProfiler service)
T32 sequence (O15111 whole entry): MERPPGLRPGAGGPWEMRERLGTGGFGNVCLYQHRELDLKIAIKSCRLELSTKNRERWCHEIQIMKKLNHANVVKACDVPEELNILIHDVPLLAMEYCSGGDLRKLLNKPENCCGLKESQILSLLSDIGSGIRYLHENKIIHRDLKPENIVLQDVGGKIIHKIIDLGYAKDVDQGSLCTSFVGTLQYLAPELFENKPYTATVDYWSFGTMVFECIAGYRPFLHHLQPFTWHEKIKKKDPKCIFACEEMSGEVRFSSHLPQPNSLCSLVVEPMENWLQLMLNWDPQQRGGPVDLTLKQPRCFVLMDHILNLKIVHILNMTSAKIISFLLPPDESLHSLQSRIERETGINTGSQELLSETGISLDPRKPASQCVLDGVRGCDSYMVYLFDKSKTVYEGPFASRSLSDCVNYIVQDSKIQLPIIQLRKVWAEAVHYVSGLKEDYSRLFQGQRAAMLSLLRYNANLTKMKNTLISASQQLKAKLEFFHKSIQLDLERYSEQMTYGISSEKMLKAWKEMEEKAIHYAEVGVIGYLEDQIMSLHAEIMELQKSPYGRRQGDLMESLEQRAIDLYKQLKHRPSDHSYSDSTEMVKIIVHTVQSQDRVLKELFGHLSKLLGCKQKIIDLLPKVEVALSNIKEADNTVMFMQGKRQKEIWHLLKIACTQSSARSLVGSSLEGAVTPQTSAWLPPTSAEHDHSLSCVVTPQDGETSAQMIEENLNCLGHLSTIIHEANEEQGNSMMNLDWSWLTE
Outline: as §1

CLK3 = target: T33, CLK3 (Homo sapiens, UniProt P49761)
T33 construct: purchased Millipore, Inc. (KinaseProfiler service)
T33 sequence (P49761 whole entry): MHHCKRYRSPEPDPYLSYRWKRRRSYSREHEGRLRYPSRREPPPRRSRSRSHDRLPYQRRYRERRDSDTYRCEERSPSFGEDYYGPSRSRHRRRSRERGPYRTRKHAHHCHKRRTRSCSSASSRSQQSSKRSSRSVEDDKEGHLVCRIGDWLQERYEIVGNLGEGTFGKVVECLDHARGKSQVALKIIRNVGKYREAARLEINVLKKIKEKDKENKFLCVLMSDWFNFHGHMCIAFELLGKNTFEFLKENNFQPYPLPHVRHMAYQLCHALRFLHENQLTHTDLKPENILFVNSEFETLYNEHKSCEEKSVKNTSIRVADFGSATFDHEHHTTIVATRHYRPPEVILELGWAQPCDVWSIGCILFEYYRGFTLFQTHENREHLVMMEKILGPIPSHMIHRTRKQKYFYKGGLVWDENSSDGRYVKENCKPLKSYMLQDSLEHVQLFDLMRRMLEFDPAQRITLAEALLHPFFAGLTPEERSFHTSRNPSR
Outline: as §1

ZAP-70 = target: T34, ZAP-70 (Homo sapiens, UniProt P43403)
T34 construct: purchased Millipore, Inc. (KinaseProfiler service)
Outline: as §1

Yes = target: T35, Yes (Homo sapiens, UniProt P07947)
T35 construct: purchased Millipore, Inc. (KinaseProfiler service)
Outline: as §1

DDR2 = target: T36, DDR2 (Homo sapiens, UniProt Q16832)
T36 construct: purchased Millipore, Inc. (KinaseProfiler service)
T36 sequence (Q16832 22-855): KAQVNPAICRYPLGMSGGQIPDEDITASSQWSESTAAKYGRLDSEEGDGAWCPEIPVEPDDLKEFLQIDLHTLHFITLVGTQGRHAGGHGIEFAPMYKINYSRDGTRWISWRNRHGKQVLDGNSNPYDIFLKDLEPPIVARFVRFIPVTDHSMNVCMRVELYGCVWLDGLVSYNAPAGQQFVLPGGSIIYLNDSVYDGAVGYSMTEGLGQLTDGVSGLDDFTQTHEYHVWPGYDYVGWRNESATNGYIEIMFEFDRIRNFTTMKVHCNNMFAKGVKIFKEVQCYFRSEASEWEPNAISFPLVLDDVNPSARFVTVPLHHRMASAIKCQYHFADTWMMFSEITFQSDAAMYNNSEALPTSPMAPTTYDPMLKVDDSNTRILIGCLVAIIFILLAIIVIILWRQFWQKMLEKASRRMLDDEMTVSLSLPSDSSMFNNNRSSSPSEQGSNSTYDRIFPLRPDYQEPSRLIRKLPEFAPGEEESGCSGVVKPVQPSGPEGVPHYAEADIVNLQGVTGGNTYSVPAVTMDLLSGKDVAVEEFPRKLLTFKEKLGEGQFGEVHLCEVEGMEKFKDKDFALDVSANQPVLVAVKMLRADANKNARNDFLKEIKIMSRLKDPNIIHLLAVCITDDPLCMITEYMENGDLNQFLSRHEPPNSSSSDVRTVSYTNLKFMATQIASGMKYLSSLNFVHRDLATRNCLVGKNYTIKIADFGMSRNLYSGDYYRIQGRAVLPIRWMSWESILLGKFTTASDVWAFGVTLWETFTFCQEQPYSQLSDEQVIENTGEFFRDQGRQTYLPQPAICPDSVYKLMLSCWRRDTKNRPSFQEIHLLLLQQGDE
Outline: as §1

PKD1 = target: T37, PKD1 (Homo sapiens, UniProt Q15139)
T37 construct: purchased Millipore, Inc. (KinaseProfiler service)
Outline: as §1

CSK = target: T38, CSK (Homo sapiens, UniProt P41240)
T38 construct: purchased Millipore, Inc. (KinaseProfiler service)
Outline: as §1

AMPK(A1/B1/G1) = target: T39, AMPK(A1/B1/G1) (Homo sapiens, UniProt Q13131)
T39 construct: purchased Millipore (KinaseProfiler service)
Outline: as §1

CAMK2g = target: T40, CAMK2g (Homo sapiens, UniProt Q13555)
T40 construct: purchased Millipore (KinaseProfiler service)
Outline: as §1

COCCCc1cc(Cl)c(Cl)cc1NC(=O)Nc1c(C)c(-c2cnn(C)c2)nn1-c1ccccc1 [Example 15, 1-(4,5-dichloro-2-(3-methoxypropyl)phenyl)-3-(1′,4-dimethyl-1-phenyl-1H,1′H-[3,4′-bipyrazol]-5-yl)urea]
Avg POC (EphB3): 78.5 POC
Avg POC (MKNK2): 106 POC
Avg POC (EphA7): 103 POC
Avg POC (SGK2): 117.5 POC
Avg POC (MRCKalpha): 137 POC
Avg POC (Flt3): 81 POC
Avg POC (IRR): 99.5 POC
Avg POC (CK2alpha2): 112.5 POC
Avg POC (Lck): 94.5 POC
Avg POC (IR): 95 POC
Avg POC (BrSK2): 123 POC
Avg POC (Ab12): 108 POC
Avg POC (TBK1): 110 POC
Avg POC (PKCgamma): 99.5 POC
Avg POC (EphA8): 127.5 POC
Avg POC (Mer): 97.5 POC
Avg POC (TSSK2): 114.5 POC
Avg POC (c-RAF): 98.5 POC
Avg POC (Fyn): 111.5 POC
Avg POC (PKCtheta): 105 POC
Avg POC (IRAK4): 124.5 POC
Avg POC (JAK2): 111.5 POC
Avg POC (Ros): 105.5 POC
Avg POC (CDK2/cyclinA): 112.5 POC
Avg POC (PrKX): 134 POC
Avg POC (DAPK1): 121.5 POC
Avg POC (CDK7/cyclinH/MAT1): 106 POC
Avg POC (MAP4K2): 112.5 POC
Avg POC (MSK1): 132.5 POC
Avg POC (Met): 110.5 POC
Avg POC (GRK5): 90 POC
Avg POC (IKKalpha): 128 POC
Avg POC (CLK3): 105 POC
Avg POC (ZAP-70): 141.5 POC
Avg POC (Yes): 120.5 POC
Avg POC (DDR2): 104.5 POC
Avg POC (PKD1): 113.5 POC
Avg POC (CSK): 139 POC
Avg POC (AMPK(A1/B1/G1)): 149 POC
Avg POC (CAMK2g): 103 POC

— US9790210B2, “N-(monocyclic aryl),N'-pyrazolyl-urea, thiourea, guanidine and cyanoguanidine compounds as TrkA kinase inhibitors” (Array BioPharma Inc., priority 2012, dated 2017)
